Reference: patent US11656182B2, “Method, composition, and chip for detecting analyte in blood sample” (TERUMO KABUSHIKI KAISHA, priority 2016, dated 2023)
In brackets after ≈: the same amount, converted by molar mass. Entries after “also recorded” stand apart in the source; their conditions may differ. Like-named read-outs stand apart in the source and are kept apart here.

Tests used:
[1] = Solubility observed in preparation of coating liquid and chip (Comparative Embodiments)
From the text: Further, the solubility with respect to the blood sample was low, so that the spectrum analysis was not able to be performed.

[2] = Spectrum analysis of detection chip before blood sample is deposited (transmittance of refractive index adjuster at 650 nm); assay type: physicochemical; conditions: absorption peak wavelength of WST-4
Description: The outline of an evaluation system used in spectrum analysis will be described below. Further, the outline of the evaluation system is illustrated in FIG. 6.
Light source: Halogen light source SPL-2H (KLV Co., Ltd.)
Conforming fiber: Core diameter=200μ or more
Spectrometer: Small fiber optical spectrometer USB2000+(Ocean Optics, Inc.)
The spectrum analysis was performed using the blood glucose value detection chips obtained in each of Embodiments and Comparative Embodiments. Incidentally, since the spacer thickness of the blood glucose value detection chip is 50 μm, the optical path length becomes 50 μm. […] Incidentally, the correction of the absorbance was performed by dividing the absorbance (actual measurement value) in each measurement wavelength by the value of the clearance (CL) (μm) actually measured in each chip and further multiplying the obtained value by […].
In the conditions of respective Embodiments and Comparative Embodiments, the value of absorbance at 650 nm (the absorption peak wavelength of WST-4) measured using the chip before the blood sample is deposited is not substantially different from the absorbance value measured by dissolving the refractive index adjuster in water and setting an optical path length of 50 μm. Therefore, from the transmittance curve before the blood sample is deposited, the transmittance of the refractive index adjuster in 650 nm that is the absorption peak wavelength of WST-4 was obtained. Incidentally, in Table 1, “⊙” represents that the transmittance at 650 nm is 60% or more and 100% or less, “◯” represents that the transmittance at 650 nm is 40% or more and less than 60%, and “X” represents that the transmittance at 650 nm is less than 40%.

[3] = Precipitates by visual inspection before drying after coating film formation; assay type: physicochemical; conditions: coating liquid
From the text: In the production step of the blood glucose value detection chip, existence of precipitates was confirmed by visual inspection before drying after coating film formation.

[4] = Degree of solubility with respect to water at 20° C.; assay type: physicochemical
[5] = Refractive index increasing capability of refractive index adjuster (refractometer, aqueous solutions); assay type: physicochemical; conditions: increase amount of the refractive index per 1 [mg/ml]; inclination of approximate straight line, aqueous solutions 0 to 350 mg/ml
Description: Aqueous solutions prepared to have a plurality of concentrations within a range of 0 to 350 mg/ml were prepared for the respective refractive index adjusters. The refractive index of each aqueous solution was obtained with a refractometer PAL-RI (ATAGO CO., LTD.). A graph was created in which the concentration of each aqueous solution is plotted on the horizontal axis and the refractive index is plotted for each refractive index adjuster on the vertical axis, and the inclination of the approximate straight line was obtained (a value of “Refractive index increasing capability” in Table 1 indicates an increase amount of the refractive index per 1 [mg/ml], and a larger inclination indicates higher refractive index increasing capability of the refractive index adjuster). Incidentally, “unmeasurable” in Table 1 means that an aqueous solution could not be prepared due to generation of precipitates.

red blood cell = experiment: Red blood cell reducing capability of refractive index adjuster (hematocrit value change); assay type: cell-based; conditions: 50 mM in blood sample, hematocrit value 40 before addition, 5 minutes after mixing
Description: 400 μL of blood plasma was recovered from 1.0 ml of blood sample (hematocrit value: 40). A refractive index adjuster was added to 400 μL of the recovered blood plasma to have a concentration of 125 mM. The blood plasma after addition of the refractive index adjuster combined with the original blood sample and mixed by inverting (the concentration of the refractive index adjuster in the blood sample becoming 50 mM). The sample after 5 minutes from mixing by inverting was filled in a hematocrit tube and was separated by centrifugation with a hematocrit centrifuge at 11×10^3 rpm for 5 minutes. A hematocrit value (Ht) after separation by centrifugation was read. […] Incidentally, “unmeasurable” in Table 1 means that the degree of solubility of the refractive index adjuster was low so that measurement could not be performed.

[6] = chip with coating liquid, blood sample

Row | Compound | solubility with respect to the blood sample [1] | solubility with respect to water [1] | Precipitates [3] | Degree of solubility (class) [4] | Refractive index increasing capability [5] | Degree of solubility [4] [mM] | solubility [4] [mM] | Transmittance 650 nm (Coloring reagent absorption peak wavelength) [2] | Red blood cell reducing capability (ΔHt) (red blood cell) | solubility with respect to the blood sample [1, 6]
1 | CCN(CC)c1ccc(C(=C2C=CC(=[N+](CC)CC)C=C2)c2ccc(S(=O)(=O)[O-])cc2S(=O)(=O)[O-])cc1.[Na+] [Acid Blue 1, reference compound] | low | low | precipitates were generated; also recorded: Present | × | – | – | – | × | – | –
2 | O=S(=O)([O-])c1ccc2c(N=Nc3ccc(S(=O)(=O)[O-])c4ccccc34)c(O)c(S(=O)(=O)[O-])cc2c1.[Na+].[Na+].[Na+] [Acid Red 27] | – | – | Absent | – | 0.000381 | 83 | – | ◯ (the transmittance at 650 nm is 40% or more and less than 60%) | 6.7 | –
3 | O=S(=O)(O)c1cccc(S(=O)(=O)O)c1 [DSB, 1,3-benzene disulfonate] | – | – | Absent | – | 0.000126 | – | – | ⊙ (the transmittance at 650 nm is 60% or more and 100% or less) | 9.0 | –
4 | O=[N+]([O-])c1ccc(-[n+]2nc(-c3ccc(S(=O)(=O)[O-])cc3S(=O)(=O)[O-])nn2-c2ccc(I)cc2)cc1.[Na+] [Wst-1, 2-(4-iodophenyl)-3-(4-nitrophenyl)-5-(2,4-disulfophenyl)-2H-tetrazolium sodium salt, reference compound] | – | – | Absent | – | 0.000174 | – | – | × | – | low
5 | COc1cc([N+](=O)[O-])ccc1-n1nc(-c2ccc(S(=O)(=O)[O-])cc2S(=O)(=O)[O-])n[n+]1-c1ccc([N+](=O)[O-])cc1.[Na+] [Wst-8, 2-(2-methoxy-4-nitrophenyl)-3-(4-nitrophenyl)-5-(2,4-disulfophenyl)-2H-tetrazolium sodium salt, reference compound] | – | – | Absent | – | 0.000189 | – | – | × | – | low

The next lines start with results.

Row | solubility with respect to the blood sample [1] | solubility with respect to water [1] | Precipitates [3] | Degree of solubility (class) [4] | Refractive index increasing capability [5] | Degree of solubility [4] [mM] | solubility [4] [mM] | Compound | Transmittance 650 nm (Coloring reagent absorption peak wavelength) [2] | Red blood cell reducing capability (ΔHt) (red blood cell) | solubility with respect to the blood sample [1, 6]
6 | – | – | Absent | – | 0.000277 | 487 | – | O=C([O-])C1=NN(c2ccc(S(=O)(=O)[O-])cc2)C(=O)C1N=Nc1ccc(S(=O)(=O)[O-])cc1.[Na+].[Na+].[Na+] (centres unmarked) [Acid Yellow 23] | ⊙ (the transmittance at 650 nm is 60% or more and 100% or less) | 8.2 | –
7 | – | – | Absent | – | 0.000296 | 220 | – | O=S(=O)(O)c1cc(S(=O)(=O)O)c2c(/N=N/c3ccccc3)c(O)ccc2c1 [Orange G] | ⊙ (the transmittance at 650 nm is 60% or more and 100% or less) | 1.9 | –
8 | – | – | Absent | – | 0.000129 | – | 820 (≈ 326 mg/mL) | OC[C@H]1O[C@H](O[C@]2(CCl)O[C@H](CCl)[C@@H](O)[C@@H]2O)[C@H](O)[C@@H](O)[C@H]1Cl [Sucralose, sucralose] | ⊙ (the transmittance at 650 nm is 60% or more and 100% or less) | 0.5 | –
9 | – | – | Absent | – | 0.000109 | – | 200 (≈ 68.5 mg/mL) | OC[C@H]1O[C@H](O[C@H]2O[C@H](CO)[C@@H](O)[C@H](O)[C@H]2O)[C@H](O)[C@@H](O)[C@@H]1O [Trehalose, trehalose] | ⊙ (the transmittance at 650 nm is 60% or more and 100% or less) | 3.5 | –
10 | – | – | Absent | – | 0.000259 | 340 | – | Acid Fuchsin [reference compound] | × | 14.3 | –
